No end group written: not given here.

We go through two sequences from patent US12428455B2, “Dominant negative CEBPB and CEBPD proteins and methods of use for decreasing viability of neoplastic cells” (The Trustees of Columbia University in the City of New York, priority 2018, dated 2025).

Common to all, as to type: cell-based
For test [1], the system named is ASNS (Asparagine synthetase). Description: qPCR for ASNS. The conditions noted are these: 20 μM, 3 days; T98G, MDA-MB-231, MCF7, A375 and HCT116 cells. Here is the method:
T98G, MDA-MB-231, MCF7, A375, and HCT116 cells were treated with or without 20 μM CP-dn-CEBPB or CP-dn-CEBPD for 3 days and then assessed by qPCR for relative levels of ASNS (Asparagine synthetase) (FIG. 33A, T98G; FIG. 33B, MDA-MB-231; FIG. 33C, MCF7; FIG. 33D, A375; FIG. 33E, HCT116).

The test system of test [2] is BCL2, MCL1 and survivin proteins. In words: Western immunoblotting for pro-survival proteins. To be noted: 20 μM, 3 days; T98G, HCT116, MDA-MB-231 and MCF7 cell lines. Here is the method:
T98G, HCT116, MDA-MB-231, and MCF7 cell lines were exposed to 0 or 20 μM CP-dn-CEBPB or CP-dn-CEBPD for 3 days and then assessed by Western immunoblotting for levels of BCL2, MCL1 and survivin proteins with actin as loading control (FIG. 34A). Remaining panels show amounts of surviving (FIG. 34B), BCL2 (FIG. 34C) and MCL1 (FIG. 34D) were quantified relative to actin in multiple experiments.
Background: In western blotting, separated proteins are transferred to a membrane and probed.

Test [3] concerns HIEC-6 non-cancer human intestinal epithelial cells. Description: Morphology after peptide treatment, HIEC-6. The conditions noted are these: 5 to 6 days, 20 μM or 50; stock without BSA. Here is the method:
Stock solutions of the peptides were prepared in buffer without added bovine serum albumin (BSA).

The next test relates to BMF transcripts. Description: qPCR for BMF transcripts. To be noted: 20 μM, 3 days; T98G, MDA-MB-231, MCF7, A375 and HCT116 cells. The method, then:
T98G, MDA-MB-231, MCF7, A375, and HCT116 cells were treated with or without 20 μM CP-dn-CEBPB or CP-dn-CEBPD for 3 days and then assessed by qPCR for relative levels of BMF transcripts (FIG. 35A, T98G; FIG. 35B, MDA-MB-231; FIG. 35C, MCF7; FIG. 35D, A375; FIG. 35E, HCT116).

In the next test the test system is MDA-MB-231 cells. In words: Apoptotic nuclei, propidium iodide flow cytometry, MDA-MB-231. To be noted: 20 μM, 3 days, vs untreated cells. The method, then: MDA-MB-231, MCF7, HCT116 and T98G cancer cell lines were treated for 3 days with 20 μM CP-dn-CEBPB and CP-dn-CEBPD peptides from stock solutions prepared without additives. Cultures were stained with propidium iodide and assessed for proportion of cells with apoptotic nuclei by flow cytometry.
For orientation: In flow cytometry, cells or beads pass a laser one at a time.

A further test has as its system HCT116 cells. In words: Colony forming activity on culture plates, HCT116. The conditions noted are these: 6 days; doses 0.05, 0.5 and 5 μM. The method, then: T98G (FIG. 21A), MDA-MB 231 (FIG. 21B), and HCT116 (FIG. 21C) cells were exposed to CP-DN-CEBPB and CP-DN-CEBPD for 6 days at doses of 0.05 μM 0.5 μM, and 5 μM while growing in soft agar. Growth was inhibited by does as low as 0.5 μM. T98G (FIG. 21D), MDA-MB 231 (FIG. 21E), and HCT116 (FIG. 21F) cells were exposed to CP-DN-CEBPB and CP-DN-CEBPD for 6 days at doses of 0.05 μM 0.5 μM, and 5 μM while growing on culture plates. Growth was inhibited by does as low as 0.5 μM.

For a further test, the system named is T98G cells. Description: Combination with gamma radiation, cell number, T98G. To be noted: 2 Gy or 5 Gy; peptide 0.05, 0.5 or 5 μM one day later, 6 days; CI<1 indicates synergism. The method, then: Replicate cultures of T98G and HCT116 cells were exposed to 2 Gy or 5 Gy of gamma radiation. One day later, the cultures were treated with 0.05 μM, 0.5 μM, or 5 μM CP-dn-CEBPB and CP-dn-CEBPD peptides, maintained for 6 days, and then assessed for cell number. The bar graphs of FIGS. 24A (T98G, CP-dn-CEBPB), 24C (T98G, CP-dn-CEBPBD, 24E (HCT116, CP-dn-CEBPD), and 24G (HCT116, CP-dn-CEBPD) show relative cell numbers for each condition as compared to untreated controls. The line graphs of FIGS. 24B (T98G, CP-dn-CEBPB), 24D (T98G, CP-dn-CEBPBD, 24F (HCT116, CP-dn-CEBPB), and 24H (HCT116, CP-dn-CEBPD) show the response as normalized in each case so that 100 represents the relative number of surviving cells that received the indicated level of radiation treatment, but no peptide treatment. Calculated Combination Indexes (CI) are T98G, CI=0.61±0.05 for CP-dn-CEBPB, 0.68±0.07 for CP-dn-CEBPD; HCT116, 0.89±0.04 for CP-dn-CEBPB, 0.86±0.05 for CP-dn-CEBPD. CI=1 indicates additivity; CI<1 indicates synergism; CI>1 indicates antagonism.

The test system of test [4] is 293T transformed embryonic kidney cells. In words: Cell number after peptide treatment, 293T. The conditions noted are these: 6 days, 0 μM to 50 μM; stock without BSA. The method, then: Replicate cultures of MDA-MB-468 breast cancer cells, A549 lung cancer cells and 293T transformed embryonic kidney cells were exposed to CP-DN-CEBPB or CP-DN-CEBPD, for 6 days at doses of 0 μM to 50 μM. […] Stock solutions of the peptides were prepared in buffer without added bovine serum albumin (BSA).

As for “RQIKIWFQNRRMKWKKLVELSAENEKLHQRVEQLTRDLAGLRQFFK [CP-DN-CEBPD]”, the “relative levels of ASNS” value in test [1] is recorded as “suppress expression of ASNS”. The “levels of BCL2, MCL1 and survivin proteins relative to actin” value in test [2] is given as “surpress expression of pro-survival proteins”. The “morphology of HIEC-6 cells” value in test [3] was “did not affect the morphology”. The “relative levels of BMF transcripts” value with BMF transcripts was “upregulate pro-apoptotic BMF”. For the same sequence, the “proportion of cells with apoptotic nuclei” value in the test on MDA-MB-231 cells is listed as “increased apoptotic cell death”. In addition, the “lowest dose at which growth was inhibited, culture plates” value in the test on HCT116 cells amounted to 0.5 µM. In the test on T98G cells, the “Combination Index (CI) with gamma radiation” value is 0.68±0.07. Further, the “number of 293T cells” value in test [4] is “dose-dependent decrease in the number”.
Consider “RQIKIWFQNRRMKWKKLETQHKVLELTAENERLQKKVEQLSRELSTLRNLFKQL [CP-DN-CEBPB]”, for which, in test [1], the “relative levels of ASNS” value is listed as “suppress expression of ASNS”. For the same sequence, the “levels of BCL2, MCL1 and survivin proteins relative to actin” value in test [2] is recorded as “surpress expression of pro-survival proteins”. Further, the “morphology of HIEC-6 cells” value in test [3] was “did not affect the morphology”. Also, the “relative levels of BMF transcripts” value in the test on BMF transcripts is “upregulate pro-apoptotic BMF”. Moreover, the “proportion of cells with apoptotic nuclei” value in the test with MDA-MB-231 cells was “increased apoptotic cell death”. Moreover, in the test on HCT116 cells, the “lowest dose at which growth was inhibited, culture plates” value is 0.5 µM. Also, in the test on T98G cells, the “Combination Index (CI) with gamma radiation” value was determined as 0.61±0.05. For the same sequence, the “number of 293T cells” value in test [4] is “dose-dependent decrease in the number”.
